Test results reported in patent publication US10729135B2, “Methods of controlling pests using terpendoles” (priority 2017, dated 2020).
Where two headings read alike, the source gives them in different places.

How the values were obtained:
Assay in all cases: whole plant or invertebrate
Type in all cases: in vivo
[1] = test system: two-spotted spider mite (Tetranychus urticae); settings: Kidney Bean, All stages; for mortality at 12.5 ppm / mortality at 50 ppm / mortality at 200 ppm / mortality at 500 ppm: Tetranychus urticae, read-out: Mortality score; on Appetite suppression score: key: 0 = no to little suppression; 1 = about 10% suppression; 2 = about 25% suppression; 3 = about 60% suppression; 4 = 70-100% suppression
Protocol: (§1) A bioefficacy assay utilizing terpendole C was conducted on the lepidopterans: diamondback moth (Plutella xylostella) and common cutworm (Spodoptera litura): the whitefly, tobacco whitefly (Bemisia tabaci) the thrips, western flower thrips (Frankliniella occidentalis); the planthopper, brown rice planthopper (Nilaparvata lugens); the aphids, cotton aphid (Aphis gossypii), foxglove aphid (Aulacorthum solani), cabbage aphid (Brevicoryne brassicae), birdcherry-oat aphid (Rhopalosiphum padi), green peach aphid (Myzus persicae); and the mite, two-spotted spider mite (Tetranychus urticae). Specifically, terpendole C was diluted with acetone and 5% Tween® 20 and finally diluted with water to prepare spray solutions. Terpendole C was then applied to plants as a foliar spray at 500, 200, 50, 12.5, 3.1, 1, 0.8 and/or 0.2 ppm and/or as a soil treatment at 2,500, 1,000, 250, 63, 16, 4 and/or 1 ppm. Pests were then placed on the plant or in the soil. Further, mortality and appetite suppression were recorded at 6, 7 and/or 13 days after treatment (“DAT”) and are reported in Tables 2 and 3, below, respectively.

[2] = test system: birdcherry-oat aphid (Rhopalosiphum padi)
Protocol: as §1

[3] = test system: cabbage aphid (Brevicoryne brassicae)
Protocol: as §1

[4] = test system: green peach aphid (Myzus persicae)
Protocol: as §1

[5] = test system: diamondback moth (Plutella xylostella)
Protocol: as §1

[6] = test system: brown rice planthopper (Nilaparvata lugens); settings: 3rd-4th instar, 6 DAT
Protocol: as §1

How did the Appetite suppression score ([1]; 12.5 ppm, 7 DAT) turn out when `CC(C)=C[C@H]1O[C@H]2[C@H]3O[C@@]34[C@H](CC[C@@]3(C)[C@@]4(O)CC[C@H]4Cc5c([nH]c6ccccc56)[C@@]43C)O[C@@H]2C(C)(C)O1` [Terpendole C, terpendole C] was run?
Its Appetite suppression score is 0.

What about the Appetite suppression score ([1]; 12.5 ppm, 13 DAT) of the same molecule?
The Appetite suppression score was 0.

And the Appetite suppression score ([1]; 50 ppm, 7 DAT)?
The Appetite suppression score was 0.

What about the Appetite suppression score ([1]; 50 ppm, 13 DAT) of the same molecule?
Its Appetite suppression score is 0.

What about the Appetite suppression score ([1]; 200 ppm, 7 DAT) of the same molecule?
The Appetite suppression score was 0.

And the Appetite suppression score ([1]; 200 ppm, 13 DAT)?
Its Appetite suppression score is 0.

What about the Appetite suppression score ([1]; 500 ppm, 7 DAT) of the same molecule?
Its Appetite suppression score is 0.

What about the Appetite suppression score ([1]; 500 ppm, 13 DAT) of the same molecule?
The Appetite suppression score was 0.

And the mortality at 12.5 ppm ([1]; 168 h, 12.5 ppm, 7 DAT)?
Its mortality at 12.5 ppm is less than 29%.

What about the mortality at 50 ppm ([1]; 168 h, 50 ppm, 7 DAT) of the same molecule?
Its mortality at 50 ppm is less than 29%.

What about the mortality at 200 ppm ([1]; 168 h, 200 ppm, 7 DAT) of the same molecule?
The mortality at 200 ppm was less than 29%.

What about the mortality at 500 ppm ([1]; 168 h, 500 ppm, 7 DAT) of the same molecule?
Its mortality at 500 ppm is less than 29%.

What about the mortality at 12.5 ppm ([1]; 312 h, 12.5 ppm, 13 DAT) of the same molecule?
Its mortality at 12.5 ppm is less than 29%.

What about the mortality at 50 ppm ([1]; 312 h, 50 ppm, 13 DAT) of the same molecule?
Its mortality at 50 ppm is less than 29%.

What about the mortality at 200 ppm ([1]; 312 h, 200 ppm, 13 DAT) of the same molecule?
The mortality at 200 ppm was less than 29%.

What about the mortality at 500 ppm ([1]; 312 h, 500 ppm, 13 DAT) of the same molecule?
Its mortality at 500 ppm is less than 29%.

What about the mortality at 0.8 ppm ([2]; Rhopalosiphum padi, 144 h, 0.8 ppm, Wheat, All stages, 6 DAT, read-out: Mortality score) of the same molecule?
Its mortality at 0.8 ppm is less than 29%.

And the mortality at 3.1 ppm ([2]; Rhopalosiphum padi, 144 h, 3.1 ppm, Wheat, All stages, 6 DAT, read-out: Mortality score)?
The mortality at 3.1 ppm was less than 29%.

What about the mortality at 12.5 ppm ([2]; Rhopalosiphum padi, 144 h, 12.5 ppm, Wheat, All stages, 6 DAT, read-out: Mortality score (converted)) of the same molecule?
Its mortality at 12.5 ppm is 50%.

What about the mortality at 50 ppm ([2]; Rhopalosiphum padi, 144 h, 50 ppm, Wheat, All stages, 6 DAT, read-out: Mortality score (converted)) of the same molecule?
The mortality at 50 ppm was 75%.

What about the mortality at 200 ppm ([2]; Rhopalosiphum padi, 144 h, 200 ppm, Wheat, All stages, 6 DAT, read-out: Mortality score (converted)) of the same molecule?
The mortality at 200 ppm was 90%.

What about the “control of birdcherry-oat aphids (in words)” value ([2]; summary of Table 2) of the same molecule?
Its value is “effectively controlled”.

What about the mortality at 0.8 ppm ([3]; Brevicoryne brassicae, 144 h, 0.8 ppm, Cabbage, All stages, 6 DAT, read-out: Mortality score (converted)) of the same molecule?
Its mortality at 0.8 ppm is 75%.

And the mortality at 3.1 ppm ([3]; Brevicoryne brassicae, 144 h, 3.1 ppm, Cabbage, All stages, 6 DAT, read-out: Mortality score (converted))?
The mortality at 3.1 ppm was 75%.

What about the mortality at 12.5 ppm ([3]; Brevicoryne brassicae, 144 h, 12.5 ppm, Cabbage, All stages, 6 DAT, read-out: Mortality score (converted)) of the same molecule?
The mortality at 12.5 ppm was 100%.

What about the mortality at 50 ppm ([3]; Brevicoryne brassicae, 144 h, 50 ppm, Cabbage, All stages, 6 DAT, read-out: Mortality score (converted)) of the same molecule?
The mortality at 50 ppm was 100%.

What about the mortality at 200 ppm ([3]; Brevicoryne brassicae, 144 h, 200 ppm, Cabbage, All stages, 6 DAT, read-out: Mortality score (converted)) of the same molecule?
The mortality at 200 ppm was 100%.

And the “control of cabbage aphids (in words)” value ([3]; summary of Table 2)?
Its value is “effectively controlled”.

What about the mortality at 0.8 ppm ([4]; Myzus persicae, 144 h, 0.8 ppm, Cabbage, All stages, 6 DAT, read-out: Mortality score) of the same molecule?
Its mortality at 0.8 ppm is less than 29%.

What about the mortality at 3.1 ppm ([4]; Myzus persicae, 144 h, 3.1 ppm, Cabbage, All stages, 6 DAT, read-out: Mortality score (converted)) of the same molecule?
The mortality at 3.1 ppm was 50%.

And the mortality at 12.5 ppm ([4]; Myzus persicae, 144 h, 12.5 ppm, Cabbage, All stages, 6 DAT, read-out: Mortality score (converted))?
Its mortality at 12.5 ppm is 75%.

What about the mortality at 50 ppm ([4]; Myzus persicae, 144 h, 50 ppm, Cabbage, All stages, 6 DAT, read-out: Mortality score (converted)) of the same molecule?
The mortality at 50 ppm was 90%.

What about the mortality at 200 ppm ([4]; Myzus persicae, 144 h, 200 ppm, Cabbage, All stages, 6 DAT, read-out: Mortality score (converted)) of the same molecule?
Its mortality at 200 ppm is 100%.

What about the “control of green peach aphids (in words)” value ([4]; summary of Table 2) of the same molecule?
The value was “effectively controlled”.

And the Appetite suppression score ([5]; 12.5 ppm, Cabbage, 3rd instar, 6 DAT)?
Its Appetite suppression score is 0.

And the Appetite suppression score ([5]; 50 ppm, Cabbage, 3rd instar, 6 DAT)?
Its Appetite suppression score is 0.

And the Appetite suppression score ([5]; 200 ppm, Cabbage, 3rd instar, 6 DAT)?
Its Appetite suppression score is 3 (3 = about 60% suppression).

What about the Appetite suppression score ([5]; 500 ppm, Cabbage, 3rd instar, 6 DAT) of the same molecule?
Its Appetite suppression score is 4 (4 = 70-100% suppression).

What about the mortality at 12.5 ppm ([5]; Plutella xylostella, 144 h, 12.5 ppm, Cabbage, 3rd instar, 6 DAT, read-out: Mortality score (converted)) of the same molecule?
The mortality at 12.5 ppm was 50%.

What about the mortality at 50 ppm ([5]; Plutella xylostella, 144 h, 50 ppm, Cabbage, 3rd instar, 6 DAT, read-out: Mortality score (converted)) of the same molecule?
Its mortality at 50 ppm is 50%.

And the mortality at 200 ppm ([5]; Plutella xylostella, 144 h, 200 ppm, Cabbage, 3rd instar, 6 DAT, read-out: Mortality score (converted))?
The mortality at 200 ppm was 90%.

What about the mortality at 500 ppm ([5]; Plutella xylostella, 144 h, 500 ppm, Cabbage, 3rd instar, 6 DAT, read-out: Mortality score (converted)) of the same molecule?
Its mortality at 500 ppm is 100%.

And the “control of diamondback moth (in words)” value ([5]; either by killing the larvae or suppressing the appetite of the larvae)?
The value was “effectively controlled”.

What about the Mortality score ([6]; 12.5 ppm) of the same molecule?
The Mortality score was 0-1.

What about the mortality at 0.2 ppm ([6]; Nilaparvata lugens, 144 h, 0.2 ppm, read-out: Mortality score) of the same molecule?
The mortality at 0.2 ppm was less than 29%.

What about the mortality at 0.8 ppm ([6]; Nilaparvata lugens, 144 h, 0.8 ppm, read-out: Mortality score) of the same molecule?
The mortality at 0.8 ppm was less than 29%.

What about the mortality at 3.1 ppm ([6]; Nilaparvata lugens, 144 h, 3.1 ppm, read-out: Mortality score) of the same molecule?
The mortality at 3.1 ppm was less than 29%.

And the mortality at 50 ppm ([6]; Nilaparvata lugens, 144 h, 50 ppm, read-out: Mortality score)?
The mortality at 50 ppm was less than 29%.

What about the mortality at 200 ppm ([6]; Nilaparvata lugens, 144 h, 200 ppm, read-out: Mortality score) of the same molecule?
Its mortality at 200 ppm is less than 29%.
